From patent US5378689A, “Peptides having renin inhibitory activity, their preparation and use” (Sankyo Company, Limited, priority 1989, dated 1995) come the findings set out here.

The target of the experiment is T1, human renin (Homo sapiens, UniProt P00797).
T1 sequence (P00797 67-406): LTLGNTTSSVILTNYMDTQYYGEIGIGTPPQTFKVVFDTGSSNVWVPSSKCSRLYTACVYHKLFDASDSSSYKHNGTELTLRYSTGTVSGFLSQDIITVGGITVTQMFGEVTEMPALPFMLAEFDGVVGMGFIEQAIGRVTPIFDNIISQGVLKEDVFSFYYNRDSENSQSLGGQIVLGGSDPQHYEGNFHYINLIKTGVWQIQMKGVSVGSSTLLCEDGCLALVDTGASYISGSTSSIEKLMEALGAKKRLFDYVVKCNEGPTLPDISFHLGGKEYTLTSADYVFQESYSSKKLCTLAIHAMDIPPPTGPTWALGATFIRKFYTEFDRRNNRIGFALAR
The experiment in a line: Inhibition of renin activity (human renin, sheep angiotensinogen, remaining angiotensin I assayed). It is filed as biochemical. The note with it: 1×10^-7 M test compound, pH 7.3, 37° C., 10 minutes, mean of 3 or 4 experiments; for inhibition at 0.1 µM: read-out: Inhibitory activity (%) Against Human Renin (1 × 10^-7 M). On the procedure:
The ability of various compounds of the invention to inhibit the activity of renin was determined according to the following method, which follows essentially the procedure of Kokubu et al. [Hypertension, 5, 191-197 (1983)].
Specifically, each test compound was dissolved in 60% v/v aqueous ethanol. Human renin activity in the presence and absence of each compound was measured using sheep angiotensinogen. The total volume of 1 ml of assay mixture contained 0.1 mole/liter phosphate buffer (pH 7.3), human renin (equivalent to 0.5 ng angiotensin I per ml per minute), sheep angiotensinogen (equivalent to 200 ng angiotensin I), 1×10^-7 M of the test compound, 6% v/v ethanol and angiotensinase inhibitors (10 mmole/liter sodium ethylenediaminetetraacetate and 3.4 mmole/liter 8-hydroxyquinoline). The mixture was allowed to react for 10 minutes at 37° C., and then the reaction was stopped by placing the reaction tube in a boiling water bath for 5 minutes. The mixture was then centrifuged and the supernatant (0.05-0.1 ml) was used to assay remaining angiotensin I.
An identical experiment was carried out, as a control, except that the test compound was omitted. From the values obtained were calculated the % inhibition of renin activity achieved by each test compound. The results are shown in the following Table 2, in which the compounds of the invention are identified by the numbers of the Examples given hereafter in which are described their preparation. The values given are the mean of 3 or 4 experiments.

Regarding `CCCCNC(=O)[C@@H](C[C@H](O)[C@H](CC1CCCCC1)NC(=O)[C@H](Cc1cscn1)NC(=O)[C@@H](CC(=O)N(C)Cc1ccccc1)Cc1ccccc1)C(C)C` [Example 16, (2S, 4S, 5S)-5-{N-[2(R)-Benzyl-3-(N-benzyl-N-methylaminocarbonyl)propionyl]-3-(4-thiazolyl)-L-alanyl}amino-N-butyl-6-cyclohexyl-4-hydroxy-2-isopropylhexanamide], the inhibition at 0.1 µM was 94.8%. On to `CCCCNC(=O)[C@H](C)C[C@H](O)[C@H](CC1CCCCC1)NC(=O)[C@H](Cc1cscn1)NC(=O)[C@@H](CC(=O)N(C)Cc1ccccc1)Cc1ccccc1` [Example 8, (2R, 4S, 5S)-5-{N-[2(R)-Benzyl-3-(N-benzyl-N-methylaminocarbonyl)propionyl]-3-(4-thiazolyl)-L-alanyl}-amino-N-butyl-6-cyclohexyl-4-hydroxy-2-methylhexanamide], for which the “Inhibitory activity (%) Against Human Renin (1 × 10^-7 M)” value is listed as 96.2%.

With `CCCCNC(=O)[C@H](C)C[C@H](O)[C@H](CC1CCCCC1)NC(=O)[C@H](Cc1cscn1)NC(=O)[C@@H](CC(=O)N1CCOCC1)Cc1ccccc1` [Example 6], the “Inhibitory activity (%) Against Human Renin (1 × 10^-7 M)” value was determined as 96.1%. `CCCCNC(=O)[C@@H](C[C@H](O)[C@H](CC1CCCCC1)NC(=O)[C@H](Cc1cscn1)NC(=O)[C@@H](CC(=O)N1CCOCC1)Cc1ccccc1)C(C)C` [Example 2, (2S, 4S, 5S)-5-{N-[2(R)-Benzyl-3-(morpholinocarbonyl)-propionyl]-3-(4-thiazolyl)-L-alanyl}amino-N-butyl-6-cyclohexyl-4-hydroxy-2-isopropylhexanamide]: the inhibition at 0.1 µM stood at 96%. On the same count and under the same terms, the result for `CNC(=O)[C@H](C)C[C@H](O)[C@H](CC1CCCCC1)NC(=O)[C@H](Cc1cscn1)NC(=O)[C@@H](CC(=O)N1CCOCC1)Cc1ccccc1` [Example 5, (2R, 4S, 5S)-5-{N-[2(R)-Benzyl-3-(morpholinocarbonyl)-propionyl]-3-(4-thiazolyl)-L-alanyl}amino-6-cyclohexyl-4-hydroxy-2,N-dimethylhexanamide] reads 95.6%; that for `CCCCNC(=O)[C@H](C)C[C@H](O)[C@H](CC1CCCCC1)NC(=O)[C@H](Cc1cscn1)NC(=O)[C@@H](CC(=O)N(C)Cc1ccccc1)Cc1ccc(OC)cc1` [Example 11, (2R, 4S, 5S)-N-Butyl-6-cyclohexyl-4-hydroxy-5-{N-[2(R)-(4-methoxybenzyl)-3-(N-benzyl-N-methylaminocarbonyl)-propionyl]-3-(4-thiazolyl)-L-alanyl}amino-2-methylhexanamide], 91.6%.

Consider `CNC(=O)[C@H](C)C[C@H](O)[C@H](CC1CCCCC1)NC(=O)[C@H](Cc1cscn1)NC(=O)[C@@H](CC(=O)N(C)Cc1ccccc1)Cc1ccccc1` [Example 14, (2R, 4S, 5S )-5-{N-[2(R)-Benzyl-3-(N-benzyl-N-methylaminocarbonyl)propionyl]-3-(4-thiazolyl)-L-alanyl}-amino-6-cyclohexyl-4-hydroxy-2,N-dimethylhexanamide], for which the “Inhibitory activity (%) Against Human Renin (1 × 10^-7 M)” value is 95.7%. `CCCCNC(=O)[C@@H](C[C@H](O)[C@H](CC1CCCCC1)NC(=O)[C@H](Cc1cscn1)NC(=O)[C@@H](CC(=O)N1CCOCC1)Cc1ccc(OC)cc1)C(C)C` [Example 4]: the “Inhibitory activity (%) Against Human Renin (1 × 10^-7 M)” value is recorded as 96.9%.

On to `CNC(=O)[C@@H](C[C@H](O)[C@H](CC1CCCCC1)NC(=O)[C@H](Cc1cscn1)NC(=O)[C@@H](CC(=O)N1CCOCC1)Cc1ccccc1)C(C)C` [Example 1, (2S, 4S, 5S)-5-{N-[2(R)-Benzyl-3-(morpholinocarbonyl)-propionyl]-3-(4-thiazolyl)-L-alanyl}amino-6-cyclohexyl-4-hydroxy-2-isopropyl-N-methylhexanamide], for which the inhibition at 0.1 µM worked out at 95.2%.

For `CNC(=O)[C@@H](C[C@H](O)[C@H](CC1CCCCC1)NC(=O)[C@H](Cc1cscn1)NC(=O)[C@@H](CC(=O)N1CCOCC1)Cc1ccc(OC)cc1)C(C)C` [Example 3, (2S, 4S, 5S)-5-{N-[2(R)-(4-Methoxybenzyl)-3-(morpholinocarbonyl)propionyl]-3-(4-thiazolyl)-L-alanyl}amino-6-cyclohexyl-4-hydroxy-2-isopropyl-N-methylhexanamid], the inhibition at 0.1 µM is 93.1%.
